In patent US11446287B2, “Compounds and methods for EP300 or CBP modulation and indications therefor” (Opna Immuno-Oncology SA, priority 2019, dated 2022):

These compounds were tested against T1, Recombinant human BRD4 containing dual bromodomains (BRD4-BD12 (1-477)) (Homo sapiens, UniProt O60885) (assay: BRD4 Alphascreen binding assay).
T1 construct: Recombinant human BRD4 containing dual bromodomains (BRD4-BD12 (1-477)); made in house; host or cells: E. coli BL21-CodonPlus (DE3), modified pET vector
Method in brief: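 AlphaScreen proximity between Ni-chelate-bound BRD4-BD12 (1-477) and streptavidin-captured H4 K5/K8/K12/K16-acetyl peptide measured after 1 h room-temperature compound incubation and 30 min with 7.5 μg/ml beads. Buffer: 50 mM HEPES pH 7.5, 50 mM NaCl, 0.01% BSA, 0.01% Triton X-100; data plate-normalized and four-parameter fit for IC50.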

Compound | IC50
Cc1noc(C)c1-c1cnc2c(CC3CC3)cn(-c3ccnc(C(=O)O)c3)c2c1 [P-0065, 4-(3-(cyclopropylmethyl)-6-(3,5-dimethylisoxazol-4-yl)-1H-pyrrolo[3,2-b]pyridin-1-yl)picolinic acid] | 1 to 8 µM
Cc1noc(C)c1-c1cnc2c(c1)c(-c1cccc(S(N)(=O)=O)c1)cn2Cc1ccccc1 [P-0081, 3-(1-benzyl-5-(3,5-dimethylisoxazol-4-yl)-1H-pyrrolo[2,3-b]pyridin-3-yl)benzenesulfonamide] | 1 to 8 µM
Cc1noc(C)c1-c1cnc2c(CC3CCC3)cn(-c3ccnc(C#N)c3)c2c1 [P-0077, 4-(3-(cyclobutylmethyl)-6-(3,5-dimethylisoxazol-4-yl)-1H-pyrrolo[3,2-b]pyridin-1-yl)picolinonitrile] | 1 to 8 µM
COc1cccc(Cn2cc(-c3cccc(C(=O)O)c3)c3cc(-c4c(C)noc4C)cnc32)c1 [P-0056, 3-(5-(3,5-dimethylisoxazol-4-yl)-1-(3-methoxybenzyl)-1H-pyrrolo[2,3-]pyridin-3-yl)benzoic acid] | 1 to 8 µM
Cc1noc(C)c1-c1cnc2c(C(=O)c3ccccc3Cl)cn(-c3ccnc(C(=O)O)c3)c2c1 [P-0089, 4-(3-(2-chlorobenzoyl)-6-(3,5-dimethylisoxazol-4-yl)-1H-pyrrolo[3,2-b]pyridin-1-yl)picolinic acid] | 1 to 8 µM
Cc1noc(C)c1-c1cnc2c(c1)c(-c1ccc(C(=O)O)cc1)cn2C(c1ccccn1)C1CCCC1 (stereo not drawn) [P-0002, 4-(1-(cyclopentyl(pyridin-2-yl)methyl)-5-(3,5-dimethylisoxazol-4-yl)-1H-pyrrolo[2,3-b]pyridin-3-yl)benzoic acid] | 0.0001 to 1 µM
Cc1noc(C)c1-c1cnc2c(c1)c(-c1ccc(C(=O)O)cc1OC(F)F)cn2[C@@H](C)c1ccccn1 [P-0071, (S)-3-(difluoromethoxy)-4-(5-(3,5-dimethylisoxazol-4-yl)-1-(1-(pyridin-2-yl)ethyl)-1H-pyrrolo[2,3-b]pyridin-3-yl)benzoic acid] | 1 to 8 µM
Cc1noc(C)c1-c1cnc2c(c1)c(-c1cccc(C(=O)O)c1)cn2Cc1cccc(C(F)(F)F)c1 [P-0063, 3-(5-(3,5-dimethylisoxazol-4-yl)-1-(3-(trifluoromethyl)benzyl)-1H-pyrrolo[2,3-b]pyridin-3-yl)benzoic acid] | 8 to 1000 µM
Cc1noc(C)c1-c1cnc2c(c1)c(-c1cccc(C(=O)O)c1)cn2Cc1cccc(F)c1 [P-0060, 3-(5-(3,5-dimethylisoxazol-4-yl)-1-(3-fluorobenzyl)-1H-pyrrolo[2,3-b]pyridin-3-yl)benzoic acid] | 1 to 8 µM
Cc1noc(C)c1-c1cnc2c(C(=O)C3CC3)c(O)n(-c3ccnc(C(=O)O)c3)c2c1 [P-0084, 4-(3-(cyclopropanecarbonyl)-6-(3,5-dimethylisoxazol-4-yl)-2-hydroxy-1H-pyrrolo[3,2-b]pyridin-1-yl)picolinic acid] | 0.0001 to 1 µM
Cc1noc(C)c1-c1cnc2c(c1)c(-c1cccc(C(=O)O)c1)cn2C(C1CCC1)C1CCC1 [P-0072, 3-(1-(dicyclobutylmethyl)-5-(3,5-dimethylisoxazol-4-yl)-1H-pyrrolo[2,3-b]pyridin-3-yl)benzoic acid] | 1 to 8 µM
Cc1noc(C)c1-c1cnc2c(c1)c(-c1c(F)cc(C(=O)O)cc1F)cn2C(C)c1ccccn1 (stereo not drawn) [P-0094, 4-(5-(3,5-dimethylisoxazol-4-yl)-1-(1-(pyridin-2-yl)ethyl)-1H-pyrrolo[2,3-b]pyridin-3-yl)-3,5-difluorobenzoic acid] | 8 to 1000 µM
Cc1noc(C)c1-c1cnc2c(c1)c(-c1cccc(C(=O)NC#N)c1)cn2Cc1ccccc1 [P-0078, 3-(1-benzyl-5-(3,5-dimethylisoxazol-4-yl)-1H-pyrrolo[2,3-b]pyridin-3-yl)-N-cyanobenzamide] | 1 to 8 µM
Cc1noc(C)c1-c1cnc2c(c1)c(-c1cccc(C(=O)NS(C)(=O)=O)c1)cn2Cc1ccccc1 [P-0092, 3-(1-benzyl-5-(3,5-dimethylisoxazol-4-yl)-1H-pyrrolo[2,3-b]pyridin-3-yl)-N-(methylsulfonyl)benzamide] | 1 to 8 µM
Cc1noc(C)c1-c1cnc2c(c1)c(-c1cccc(C(=O)NO)c1)cn2Cc1ccccc1 [P-0079, 3-(1-benzyl-5-(3,5-dimethylisoxazol-4-yl)-1H-pyrrolo[2,3-b]pyridin-3-yl)-N-hydroxybenzamide] | 1 to 8 µM
Cc1noc(C)c1-c1cnc2c(c1)c(-c1cccc(C(=O)O)c1)cn2C(=O)c1ccccc1 [P-0085, 3-(1-benzoyl-5-(3,5-dimethylisoxazol-4-yl)-1H-pyrrolo[2,3-b]pyridin-3-yl)benzoic acid] | 8 to 1000 µM
Cc1noc(C)c1-c1cnc2c(c1)c(-c1cccc(C(=O)O)c1)cn2Cc1cccc(OC(F)(F)F)c1 [P-0059, 3-(5-(3,5-dimethylisoxazol-4-yl)-1-(3-(trifluoromethoxy)benzyl)-1H-pyrrolo[2,3-b]pyridin-3-yl)benzoic acid] | 8 to 1000 µM

Compound | IC50
Cc1noc(C)c1-c1cnc2c(c1)c(-c1cccc(S(=O)(=O)NC3CC3)c1)cn2Cc1ccccc1 [P-0083, 3-(1-benzyl-5-(3,5-dimethylisoxazol-4-yl)-1H-pyrrolo[2,3-b]pyridin-3-yl)-N-cyclopropylbenzenesulfonamide] | 1 to 8 µM
Cc1noc(C)c1-c1cnc2c(CC3CCC3)cn(-c3c(C(=O)O)ccc(Br)c3F)c2c1 [P-0086, 4-bromo-2-(3-(cyclobutylmethyl)-6-(3,5-dimethylisoxazol-4-yl)-1H-pyrrolo[3,2-b]pyridin-1-yl)-3-fluorobenzoic acid] | 1 to 8 µM
Cc1noc(C)c1-c1cnc2c(CC3CCC3)cn(-c3c(Cl)cc(C(=O)O)cc3Cl)c2c1 [P-0074, 3,5-dichloro-4-(3-(cyclobutylmethyl)-6-(3,5-dimethylisoxazol-4-yl)-1H-pyrrolo[3,2-b]pyridin-1-yl)benzoic acid] | 8 to 1000 µM
Cc1noc(C)c1-c1cnc2c(c1)c(-c1ccnc(C(=O)O)c1)cn2S(=O)(=O)c1ccccc1 [P-0055, 4-(5-(3,5-dimethylisoxazol-4-yl)-1-(phenylsulfonyl)-1H-pyrrolo[2,3-b]pyridin-3-yl)picolinic acid] | 0.0001 to 1 µM
COc1cc(C(=O)O)cc(OC)c1-n1cc(CC2CCC2)c2ncc(-c3c(C)noc3C)cc21 [P-0067, 4-(3-(cyclobutylmethyl)-6-(3,5-dimethylisoxazol-4-yl)-1H-pyrrolo[3,2-b]pyridin-1-yl)-3,5-dimethoxybenzoic acid] | 1 to 8 µM
COc1cccc(Cn2cc(-c3ccnc(C(=O)O)c3)c3cc(-c4c(C)noc4C)cnc32)c1 [P-0057, 4-(5-(3,5-dimethylisoxazol-4-yl)-1-(3-methoxybenzyl)-1H-pyrrolo[2,3-b]pyridin-3-yl)picolinic acid] | 1 to 8 µM
Cc1noc(C)c1-c1cnc2c(c1)c(C1=CCC(C(=O)O)CC1)cn2Cc1ccccc1 (stereo not drawn) [P-0093, 4-(1-benzyl-5-(3,5-dimethylisoxazol-4-yl)-1H-pyrrolo[2,3-b]pyridin-3-yl)cyclohex-3-ene-1-carboxylic acid] | 1 to 8 µM
Cc1noc(C)c1-c1cnc2c(Cc3ccccc3Cl)cn(-c3ccnc(C(=O)O)c3)c2c1 [P-0091, 4-(3-(2-chlorobenzyl)-6-(3,5-dimethylisoxazol-4-yl)-1H-pyrrolo[3,2-b]pyridin-1-yl)picolinic acid] | 1 to 8 µM
Cc1cc(C(=O)O)cnc1-n1cc(CC2CCC2)c2ncc(-c3c(C)noc3C)cc21 [P-0075, 6-(3-(cyclobutylmethyl)-6-(3,5-dimethylisoxazol-4-yl)-1H-pyrrolo[3,2-b]pyridin-1-yl)-5-methylnicotinic acid] | 8 to 1000 µM
Cc1noc(C)c1-c1cnc2c(Cc3cccc(Cl)c3)cn(-c3ccnc(C(=O)O)c3)c2c1 [P-0090, 4-(3-(3-chlorobenzyl)-6-(3,5-dimethylisoxazol-4-yl)-1H-pyrrolo[3,2-b]pyridin-1-yl)picolinic acid] | 0.0001 to 1 µM
Cc1noc(C)c1-c1cnc2c(c1)c(-c1ccc(C(=O)O)cc1)cn2C(c1ccccn1)C1CCCCC1 (stereo not drawn) [P-0004, 4-(1-(cyclohexyl(pyridin-2-yl)methyl)-5-(3,5-dimethylisoxazol-4-yl)-1H-pyrrolo[2,3-b]pyridin-3-yl)benzoic acid] | 8 to 1000 µM
Cc1noc(C)c1-c1cnc2c(c1)c(-c1cccc(C(=O)O)c1)cn2C(c1ccccn1)C1CCC1 (stereo not drawn) [P-0073, 3-(1-(cyclobutyl(pyridin-2-yl)methyl)-5-(3,5-dimethylisoxazol-4-yl)-1H-pyrrolo[2,3-b]pyridin-3-yl)benzoic acid] | 8 to 1000 µM
Cc1noc(C)c1-c1cnc2c(c1)c(-c1cccc(C(=O)O)c1)cn2C(C1CC1)C1CC1 [P-0058, 3-(1-(dicyclopropylmethyl)-5-(3,5-dimethylisoxazol-4-yl)-1H-pyrrolo[2,3-b]pyridin-3-yl)benzoic acid] | 8 to 1000 µM
Cc1noc(C)c1-c1cnc2c(c1)c(-c1ccccc1)cn2C(c1ccccn1)C1CCCC1 (stereo not drawn) [P-0003, 4-(1-(cyclopentyl(pyridin-2-yl)methyl)-3-phenyl-1H-pyrrolo[2,3-b]pyridin-5-yl)-3,5-dimethylisoxazole] | 8 to 1000 µM
COc1c(-n2cc(CC3CCC3)c3ncc(-c4c(C)noc4C)cc32)ccc(C(=O)O)c1F [P-0087, 4-(3-(cyclobutylmethyl)-6-(3,5-dimethylisoxazol-4-yl)-1H-pyrrolo[3,2-b]pyridin-1-yl)-2-fluoro-3-methoxybenzoic acid] | 1 to 8 µM
Cc1noc(C)c1-c1cnc2c(CC3CCC3)cn(-c3ccc(C#N)cc3)c2c1 [P-0076, 4-(3-(cyclobutylmethyl)-6-(3,5-dimethylisoxazol-4-yl)-1H-pyrrolo[3,2-b]pyridin-1-yl)benzonitrile] | 8 to 1000 µM
